Source: patent US20130101664A1, “MUC1 LIGAND TRAPS FOR USE IN TREATING CANCERS” (priority 2011, published 2013)

Assays:
[1] = test system: ZR-75-1 breast carcinoma cells; assay: Cell proliferation by trypan blue exclusion, GO-101 with oxidative stress (H2O2); format: cell-based, human; conditions: 500 nM GO-101 and/or 1 mM H2O2, 3 days, compared to mock conditions
Method: FIG. 8. ZR-75-1 human breast carcinoma cells were treated with 500 nM GO-101 and/or 1 mM H2O2 for 3 days and the cell proliferation was measured by trypan blue exclusion method. The percent proliferation is shown to that compared with control.
To assess the effects of GO-101 on sensitivity of human carcinoma cells to oxidative stress, the inventors treated ZR-75-1 breast carcinoma cells with 500 nM GO-101 in the presence and absence of […]. As a control, cells were also separately treated with hFc (data not shown). Following treatment for 3 days, viable cells were then counted using trypan blue exclusion. […] Importantly, the ZR-75-1 cells exposed to 500 nM GO-101, but not hFc, was associated with ˜42% growth inhibition. However, there was a ˜90% growth inhibition when cells were treated with both H2O2 and GO-101 (FIG. 8).

[2] = test system: ZR-75-1 human breast carcinoma xenograft; format: in vivo; conditions: doxorubicin 6 mg/kg i.v. Q4D×3
Method: ZR-75-1 human breast carcinoma bearing nu/nu mice were dosed with either doxorubicin alone (squares) or in combination with 1 mg/kg GO-101 i.p daily×21 days (circles). Tumors were measured twice a week.
ZR-75-1 Hormone-dependent Breast Carcinoma Xenograft Model: Preliminary 1st TRAP Study in Combination with Doxorubicin (mean tumor volume+SE). ZR-75-1 human breast carcinoma bearing nu/nu mice were dosed with either doxorubicin 6 mg/kg i.v. Q4D×3 (squares) or 1 mg/kg GO-101 i.p daily×21 days+doxorubicin 6 mg/kg i.v. Q4D×3 (circles). Mice were weighed 2-3 times a week and tumor measurements were also performed 2-3 times a week. Points, mean tumor volumes±SE.
GO-101. To avoid freeze/thaw cycles, GO-101 protein (HG-batch GENU001) was prepared as multiple aliquots of frozen solution in PBS into individual treatment doses. The frozen tubes were stored at −80° C. until initiation of dosing. On each day of treatment, the appropriate tubes were allowed to thaw at room temperature. The resulting solution in each tube was clear and colorless with a pH of ˜6.5.
Upon receipt, the clear, red solution was stored at 4° C. protected from light. Dosing solutions were prepared just prior to each treatment by dilution with saline.
About 9-10 weeks old female mice (on the day of treatment) (CRL: NUFoxn1nu) were obtained from Charles River Labs. The mice were fed irradiated Rodent Diet 5053 and water ad libitum. […]

[3] = severe sepsis; decrease from about 31%; cited from earlier work

OO [H2O2]
inhibition in cell proliferation / growth inhibition [1]: ~66%

COc1cccc2c1C(=O)c1c(O)c3c(c(O)c1C2=O)C[C@@](O)(C(=O)CO)C[C@@H]3O[C@H]1C[C@H](N)[C@H](O)[C@H](C)O1 [doxorubicin]
tumor regressions / tumor free survivors [2]: neither tumor regressions nor tumor free survivors
anti-tumor activity based upon tumor growth delay ([2]; p=0.0356): significant

drotrecogin alfa
mortality [3]: about 25%
